PubChem BioAssay (NCI)
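In this assay, cells in 96-well plates receive the compound at five concentrations for 48 hours. Endpoints are linearly interpolated between the surrounding concentrations. TGI: total growth inhibition.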

Columns and labels:
Assay in all cases: NCI tumour cell line growth inhibition, 48 h
[1] = tested on: SF-295 CNS
[2] = tested on: TK-10 renal
[3] = tested on: MDA-N
[4] = tested on: U251 CNS
[5] = tested on: SK-MEL-5 melanoma
[6] = tested on: UACC-62 melanoma
[7] = tested on: EKVX NSCLC
[8] = tested on: SNB-75 CNS
[9] = tested on: HCC-2998 colon
[10] = tested on: MALME-3M melanoma
[11] = tested on: 786-0 renal
[12] = tested on: MDA-MB-435
[13] = tested on: T-47D breast
[14] = tested on: RXF 393 renal
[15] = tested on: HOP-92 NSCLC
[16] = tested on: SF-268 CNS
[17] = tested on: SN12C renal
[18] = tested on: M14 melanoma
[19] = tested on: IGROV1 ovarian
[20] = tested on: DU-145 prostate
[21] = tested on: HOP-62 NSCLC
[22] = tested on: PC-3 prostate
[23] = tested on: HT29 colon
[24] = tested on: CAKI-1 renal
[25] = tested on: A498 renal
[26] = tested on: UACC-257 melanoma
[27] = tested on: HS 578T breast
[28] = tested on: A549 NSCLC
[29] = tested on: LOX IMVI melanoma
[30] = tested on: SK-MEL-2 melanoma
[31] = tested on: BT-549 breast
[32] = tested on: K-562 leukemia
[33] = tested on: SK-MEL-28 melanoma
[34] = tested on: NCI-H226 lung
[35] = tested on: MOLT-4 leukemia
[36] = tested on: NCI-H23 lung
[37] = tested on: OVCAR-3 ovarian
[38] = tested on: OVCAR-5 ovarian
[39] = tested on: KM12 colon
[40] = tested on: SW-620 colon
[41] = tested on: NCI-H460 lung
[42] = tested on: NCI-H522 lung
[43] = tested on: HCT-15 colon
[44] = tested on: NCI/ADR-RES ovarian
[45] = tested on: OVCAR-4 ovarian
[46] = tested on: SNB-19 CNS
[47] = tested on: HCT-116 colon
[48] = tested on: MDA-MB-231 breast
[49] = tested on: UO-31 renal
[50] = tested on: ACHN renal
[51] = tested on: SR leukemia
[52] = tested on: COLO 205 colon
[53] = tested on: SK-OV-3 ovarian
[54] = tested on: SF-539 CNS
[55] = tested on: RPMI-8226 leukemia
[56] = tested on: CCRF-CEM leukemia
[57] = tested on: MCF7 breast
[58] = tested on: OVCAR-8 ovarian
[59] = tested on: HL-60(TB) leukemia

CCOc1ccccc1Nc1ccc(N)cc1S(=O)(=O)O
TGI [1]: > 100 µM
TGI [2]: > 100 µM
TGI [3]: > 100 µM
TGI [4]: > 100 µM
TGI [5]: > 100 µM
TGI [6]: > 100 µM
TGI [7]: > 100 µM
TGI [8]: > 100 µM
TGI [9]: > 100 µM
TGI [10]: > 100 µM
TGI [11]: > 100 µM
TGI [12]: > 100 µM
TGI [13]: > 100 µM
TGI [14]: > 100 µM
TGI [15]: > 100 µM
TGI [16]: > 100 µM
TGI [17]: > 100 µM
TGI [18]: > 100 µM
TGI [19]: > 100 µM
TGI [20]: > 100 µM
TGI [21]: > 100 µM
TGI [22]: > 100 µM
TGI [23]: > 100 µM
TGI [24]: > 100 µM
TGI [25]: > 100 µM
TGI [26]: > 100 µM
TGI [27]: > 100 µM
TGI [28]: > 100 µM
TGI [29]: > 100 µM
TGI [30]: > 100 µM
TGI [31]: > 100 µM
TGI [32]: > 100 µM
TGI [33]: > 100 µM
TGI [34]: > 100 µM
TGI [35]: > 100 µM
TGI [36]: > 100 µM
TGI [37]: > 100 µM
TGI [38]: > 100 µM
TGI [39]: > 100 µM
TGI [40]: > 100 µM
TGI [41]: > 100 µM
TGI [42]: > 100 µM
TGI [43]: > 100 µM
TGI [44]: > 100 µM
TGI [45]: > 100 µM
TGI [46]: > 100 µM
TGI [47]: > 100 µM
TGI [48]: > 100 µM
TGI [49]: > 100 µM
TGI [50]: > 100 µM
TGI [51]: > 100 µM

COc1ccc(C(=O)CCN(C)C)c2ccccc12
TGI [1]: > 100 µM
TGI [52]: 36.6 µM
TGI [2]: > 54.4 µM
TGI [3]: 50.5 µM
TGI [53]: > 100 µM
TGI [4]: 35.1 µM
TGI [5]: > 100 µM
TGI [6]: > 58.1 µM
TGI [7]: 55.8 µM
TGI [8]: 61.5 µM
TGI [9]: 36 µM
TGI [10]: 34.4 µM
TGI [11]: 27.4 µM
TGI [12]: 48.1 µM
TGI [13]: 49.5 µM
TGI [14]: 41.9 µM
TGI [15]: 41.9 µM
TGI [54]: 33.1 µM
TGI [16]: 55.4 µM
TGI [17]: 49.1 µM
TGI [55]: 4.44 µM
TGI [18]: 98.3 µM
TGI [19]: 40.2 µM
TGI [20]: > 62 µM
TGI [21]: > 78.3 µM
TGI [22]: 34 µM
TGI [23]: 66.7 µM
TGI [24]: 17.4 µM
TGI [25]: > 88.8 µM
TGI [56]: 11.8 µM
TGI [26]: > 58.7 µM
TGI [27]: 57 µM
TGI [28]: > 100 µM
TGI [29]: 42.8 µM
TGI [57]: 33.2 µM
TGI [30]: 39.2 µM
TGI [58]: 40.5 µM
TGI [31]: 37.6 µM
TGI [32]: 60 µM
TGI [33]: 60.3 µM
TGI [34]: > 100 µM
TGI [35]: 46 µM
TGI [36]: 51.4 µM
TGI [37]: 36.9 µM
TGI [59]: 37 µM
TGI [38]: > 96.5 µM
TGI [39]: > 63.7 µM
TGI [40]: 49.3 µM
TGI [41]: > 100 µM
TGI [42]: 21.9 µM
TGI [43]: 48.7 µM
TGI [44]: > 100 µM
TGI [45]: 65.1 µM
TGI [46]: > 100 µM
TGI [47]: 52.5 µM
TGI [48]: 35.6 µM
TGI [49]: 44.2 µM
TGI [50]: 34 µM
